# Source: US20120034613A1, “Apparatus and Method for Testing Relationships Between Gene Expression and Physical Appearance of Skin” (NSE Products, Inc., priority 2010, published 2012)
# Experiments:
# [1] = system: stratum corneum; assay: Corneometry, moisture content of the stratum corneum, 12 week clinical study; format: in vivo, human; conditions: Left Ocular Bone; for Corneometer Mean: Baseline mean 56.49
# Text: Corneometry measurements were taken on each subject's left ocular bone (in line with pupil) to measure the moisture content of the stratum corneum. All clinical and corneometer measurements and evaluations were taken at baseline, week 1 (visit 2), week 4 (visit 3), week 8 (visit 4) and week 12 (visit 5). Ultrasound and cutometer measurements and evaluations were taken at baseline, week 4 (visit 3), week 8 (visit 4) and week 12 (visit 5). Completed patient's diaries were reviewed for compliance at each visit. Mean clinical grading and instrumentation scores at each visit were statistically compared to baseline scores using paired t-test. Changes from baseline were considered significant at the p≦0.05 level. Mean percent change from baseline and incidence of positive responders were calculated for all attributes. Comparisons, based on the average from baseline, were made between the test materials using analysis of variance (ANOVA).
# [2] = system: facial skin; assay: Clinical investigator grading of facial attributes, 9-point ordinal scale, 12 week clinical study; format: in vivo, human; conditions: for Cheek Wrinkles clinical grading Mean: Baseline mean 2.41; for Under-Eye Area Wrinkles clinical grading Mean: Baseline mean 3.19; for Crows Feet Wrinkles clinical grading Mean: Baseline mean 3.29; for Face Tactile Roughness/Smoothness clinical grading Mean: Baseline mean 3.48; for Face Fine Lines (Overall) clinical grading Mean: Baseline mean 4.29; for Face Pore Size clinical grading Mean: Baseline mean 4.41; for Face Global Firmness Appearance clinical grading Mean: Baseline mean 5.03; for Face Mottled Pigmentation clinical grading Mean / Face Uneven Skin Tone clinical grading Mean: Baseline mean 5.05; for Face Jawline Contour clinical grading Mean: Baseline mean 5.16; for Face Overall Appearance clinical grading Mean: Baseline mean 5.47; for Face Radiance clinical grading Mean: Baseline mean 5.81
# Text: At baseline (Visit 1), each prospective subject completed an Eligibility and Health Questionnaire, and read and signed a Confidentially Agreement, a Photography Release Form and an Informed Consent Agreement. Each subject was explained the type of study, the detailed procedures and materials to be tested, along with any known adverse reactions that may result from participation. Subjects arrived at the clinic having refrained from applying any moisturizer to the face at least 3 to 5 days prior to visit and having cleansed the face to remove all makeup at least 30 minutes prior to visit. Subjects were consequently not allowed to use any other topical cosmeceuticals, topical retinoid, or moisturizers during the 12 week duration of the study. Subjects used the study product on their face twice daily for 12 weeks. Ordinal grading on a 9-point scale (0=none, 1-3=mild, 4-6=moderate, 7-9=severe) of facial fine lines, mottled pigmentation, uneven skin tone, tactile roughness, global firmness appearance, jaw-line contour, radiance and overall appearance was performed by investigator at baseline, week 1, week 4, week 8 and week 12. Digital high-resolution photography was performed on the front, right and left sides of the face. Each image was taken while the subject's eyes were open. Each subject's baseline photograph was compared to each post-baseline photograph to ensure consistent placement and lighting. Color standards were imaged prior to each study visit. All clinical and corneometer measurements and evaluations were taken at baseline, week 1 (visit 2), week 4 (visit 3), week 8 (visit 4) and week 12 (visit 5). Ultrasound and cutometer measurements and evaluations were taken at baseline, week 4 (visit 3), week 8 (visit 4) and week 12 (visit 5). Completed patient's diaries were reviewed for compliance at each visit. Mean clinical grading and instrumentation scores at each visit were statistically compared to baseline scores using paired t-test. Changes from baseline were considered significant at the p≦0.05 level. Mean percent change from baseline and incidence of positive responders were calculated for all attributes. Comparisons, based on the average from baseline, were made between the test materials using analysis of variance (ANOVA).
smiles,measurement,setting,value
"OCc1ccccc1O[C@@H]1O[C@H](CO)[C@@H](O)[C@H](O)[C@H]1O [Salicin, 2-(Hydroxymethyl)phenyl β-D-glucospyranoside]",Corneometer Mean,[1]; Week 1,60.54
same,Corneometer % Change,[1]; Week 1 vs Baseline,(7.3%)
same,Corneometer Mean,[1]; Week 4,62.49
same,Corneometer % Change,[1]; Week 4 vs Baseline,(10.6%)
same,Corneometer Mean,[1]; Week 8,63.91
same,Corneometer % Change,[1]; Week 8 vs Baseline,(13.1%)
same,Corneometer Mean,[1]; Week 12,52.23
same,Corneometer % Change,[1]; Week 12 vs Baseline,(−7.5%)
same,Cheek Wrinkles clinical grading Mean,[2]; Week 1,2.29
same,Under-Eye Area Wrinkles clinical grading Mean,[2]; Week 1,3.07
same,Crows Feet Wrinkles clinical grading Mean,[2]; Week 1,3.21
same,Face Tactile Roughness/Smoothness clinical grading Mean,[2]; Week 1,2.41
same,Face Fine Lines (Overall) clinical grading Mean,[2]; Week 1,4.14
same,Face Pore Size clinical grading Mean,[2]; Week 1,4.30
same,Face Global Firmness Appearance clinical grading Mean,[2]; Week 1,5.04
same,Face Mottled Pigmentation clinical grading Mean,[2]; Week 1,5.05
same,Face Uneven Skin Tone clinical grading Mean,[2]; Week 1,5.05
same,Face Jawline Contour clinical grading Mean,[2]; Week 1,5.14
same,Face Overall Appearance clinical grading Mean,[2]; Week 1,5.21
same,Face Radiance clinical grading Mean,[2]; Week 1,5.20
same,Cheek Wrinkles clinical grading % Change,[2]; Week 1 vs Baseline,(−1.5%)
same,Crows Feet Wrinkles clinical grading % Change,[2]; Week 1 vs Baseline,(−0.5%)
same,Face Fine Lines (Overall) clinical grading % Change,[2]; Week 1 vs Baseline,(−3.7%)
same,Face Global Firmness Appearance clinical grading % Change,[2]; Week 1 vs Baseline,(0.3%)
same,Face Jawline Contour clinical grading % Change,[2]; Week 1 vs Baseline,(0.0%)
same,Face Mottled Pigmentation clinical grading % Change,[2]; Week 1 vs Baseline,(−0.7%)
same,Face Overall Appearance clinical grading % Change,[2]; Week 1 vs Baseline,(−4.2%)
same,Face Pore Size clinical grading % Change,[2]; Week 1 vs Baseline,(−2.4%)
same,Face Radiance clinical grading % Change,[2]; Week 1 vs Baseline,(−11.0%)
same,Face Tactile Roughness/Smoothness clinical grading % Change,[2]; Week 1 vs Baseline,(−30.7%)
same,Face Uneven Skin Tone clinical grading % Change,[2]; Week 1 vs Baseline,(−0.7%)
same,Under-Eye Area Wrinkles clinical grading % Change,[2]; Week 1 vs Baseline,(−1.7%)
same,Cheek Wrinkles clinical grading Mean,[2]; Week 4,2.26
same,Under-Eye Area Wrinkles clinical grading Mean,[2]; Week 4,2.79
same,Crows Feet Wrinkles clinical grading Mean,[2]; Week 4,3.00
same,Face Tactile Roughness/Smoothness clinical grading Mean,[2]; Week 4,2.02
same,Face Fine Lines (Overall) clinical grading Mean,[2]; Week 4,3.76
same,Face Pore Size clinical grading Mean,[2]; Week 4,4.05
same,Face Global Firmness Appearance clinical grading Mean,[2]; Week 4,4.86
same,Face Mottled Pigmentation clinical grading Mean,[2]; Week 4,4.74
same,Face Uneven Skin Tone clinical grading Mean,[2]; Week 4,4.74
same,Face Jawline Contour clinical grading Mean,[2]; Week 4,5.10
same,Face Overall Appearance clinical grading Mean,[2]; Week 4,4.91
same,Face Radiance clinical grading Mean,[2]; Week 4,4.90
same,Cheek Wrinkles clinical grading % Change,[2]; Week 4 vs Baseline,(−6.4%)
same,Crows Feet Wrinkles clinical grading % Change,[2]; Week 4 vs Baseline,(−8.9%)
same,Face Fine Lines (Overall) clinical grading % Change,[2]; Week 4 vs Baseline,(−12.4%)
same,Face Global Firmness Appearance clinical grading % Change,[2]; Week 4 vs Baseline,(−3.4%)
same,Face Jawline Contour clinical grading % Change,[2]; Week 4 vs Baseline,(−1.0%)
same,Face Mottled Pigmentation clinical grading % Change,[2]; Week 4 vs Baseline,(−6.1%)
same,Face Overall Appearance clinical grading % Change,[2]; Week 4 vs Baseline,(−10.0%)
same,Face Pore Size clinical grading % Change,[2]; Week 4 vs Baseline,(−8.2%)
same,Face Radiance clinical grading % Change,[2]; Week 4 vs Baseline,(−15.7%)
same,Face Tactile Roughness/Smoothness clinical grading % Change,[2]; Week 4 vs Baseline,(−42.0%)
same,Face Uneven Skin Tone clinical grading % Change,[2]; Week 4 vs Baseline,(−6.1%)
same,Under-Eye Area Wrinkles clinical grading % Change,[2]; Week 4 vs Baseline,(−12.4%)
same,Cheek Wrinkles clinical grading Mean,[2]; Week 8,2.12
same,Under-Eye Area Wrinkles clinical grading Mean,[2]; Week 8,2.55
same,Crows Feet Wrinkles clinical grading Mean,[2]; Week 8,2.71
same,Face Tactile Roughness/Smoothness clinical grading Mean,[2]; Week 8,1.43
same,Face Fine Lines (Overall) clinical grading Mean,[2]; Week 8,3.47
same,Face Pore Size clinical grading Mean,[2]; Week 8,3.86
same,Face Global Firmness Appearance clinical grading Mean,[2]; Week 8,4.64
same,Face Mottled Pigmentation clinical grading Mean,[2]; Week 8,4.57
same,Face Uneven Skin Tone clinical grading Mean,[2]; Week 8,4.57
same,Face Jawline Contour clinical grading Mean,[2]; Week 8,4.95
same,Face Overall Appearance clinical grading Mean,[2]; Week 8,4.67
same,Face Radiance clinical grading Mean,[2]; Week 8,4.72
same,Cheek Wrinkles clinical grading % Change,[2]; Week 8 vs Baseline,(−12.1%)
same,Crows Feet Wrinkles clinical grading % Change,[2]; Week 8 vs Baseline,(−17.8%)
same,Face Fine Lines (Overall) clinical grading % Change,[2]; Week 8 vs Baseline,(−19.2%)
same,Face Global Firmness Appearance clinical grading % Change,[2]; Week 8 vs Baseline,(−7.8%)
same,Face Jawline Contour clinical grading % Change,[2]; Week 8 vs Baseline,(−4.0%)
same,Face Mottled Pigmentation clinical grading % Change,[2]; Week 8 vs Baseline,(−9.5%)
same,Face Overall Appearance clinical grading % Change,[2]; Week 8 vs Baseline,(−14.5%)
same,Face Pore Size clinical grading % Change,[2]; Week 8 vs Baseline,(−12.5%)
same,Face Radiance clinical grading % Change,[2]; Week 8 vs Baseline,(−18.6%)
same,Face Tactile Roughness/Smoothness clinical grading % Change,[2]; Week 8 vs Baseline,(−58.9%)
same,Face Uneven Skin Tone clinical grading % Change,[2]; Week 8 vs Baseline,(−9.5%)
same,Under-Eye Area Wrinkles clinical grading % Change,[2]; Week 8 vs Baseline,(−20.0%)
same,Cheek Wrinkles clinical grading Mean,[2]; Week 12,2.02
same,Under-Eye Area Wrinkles clinical grading Mean,[2]; Week 12,2.24
same,Crows Feet Wrinkles clinical grading Mean,[2]; Week 12,2.48
same,Face Tactile Roughness/Smoothness clinical grading Mean,[2]; Week 12,0.98
same,Face Fine Lines (Overall) clinical grading Mean,[2]; Week 12,3.10
same,Face Pore Size clinical grading Mean,[2]; Week 12,3.71
same,Face Global Firmness Appearance clinical grading Mean,[2]; Week 12,4.48
same,Face Mottled Pigmentation clinical grading Mean,[2]; Week 12,4.33
same,Face Uneven Skin Tone clinical grading Mean,[2]; Week 12,4.34
same,Face Jawline Contour clinical grading Mean,[2]; Week 12,4.74
same,Face Overall Appearance clinical grading Mean,[2]; Week 12,4.50
same,Face Radiance clinical grading Mean,[2]; Week 12,4.59
same,Cheek Wrinkles clinical grading % Change,[2]; Week 12 vs Baseline,(−16.4%)
same,Crows Feet Wrinkles clinical grading % Change,[2]; Week 12 vs Baseline,(−24.6%)
same,Face Fine Lines (Overall) clinical grading % Change,[2]; Week 12 vs Baseline,(−27.7%)
same,Face Global Firmness Appearance clinical grading % Change,[2]; Week 12 vs Baseline,(−10.9%)
same,Face Jawline Contour clinical grading % Change,[2]; Week 12 vs Baseline,(−8.0%)
same,Face Mottled Pigmentation clinical grading % Change,[2]; Week 12 vs Baseline,(−14.3%)
same,Face Overall Appearance clinical grading % Change,[2]; Week 12 vs Baseline,(−17.6%)
same,Face Pore Size clinical grading % Change,[2]; Week 12 vs Baseline,(−16.0%)
same,Face Radiance clinical grading % Change,[2]; Week 12 vs Baseline,(−21.0%)
same,Face Tactile Roughness/Smoothness clinical grading % Change,[2]; Week 12 vs Baseline,(−71.7%)
same,Face Uneven Skin Tone clinical grading % Change,[2]; Week 12 vs Baseline,(−13.9%)
same,Under-Eye Area Wrinkles clinical grading % Change,[2]; Week 12 vs Baseline,(−29.7%)
